From US20260226552A1, “MUC5AC IN PANCREATIC DUCTAL ADENOCARCINOMA” (Ohio State Innovation Foundation, priority 2023, published 2026)
Marks after values point to notes of the source that are not given here.

Tests used:
[1] = test system: pancreatic cell lines (PCLs); test: Chemosensitivity of pancreatic cell lines by MUC5AC expression level; assay type: cell-based
From the text: It was also shown that MUC5AC detected by CLH2 (immature) and 45M1 (mature) mabs are differently localized (Ho, J. J., et al., Secretion of MUC5AC mucin from pancreatic cancer cells in response to forskolin and VIP. Biochem Biophys Res Commun, 2002. 294(3): p. 680-6). NPC-1C-specific (immunogenic) MUC5AC has a distribution similar to mature MUC5AC. It can therefore be concluded that there are differences in chemosensitivities MUC5AC^negative MUC5AC^low to moderate and MUC5AC^high pancreatic cell lines (PCLs).
Thus, adding localization and other isoform data to the level of mature MUC5AC expression gives a better predictive signal in PDA patients.

[2] = test system: MUC5AC; test: Immunohistochemistry of MUC5AC glycoforms (45M1, CLH2) in resected PDA tissue, H-score and extracellular detection; assay type: in vivo, human; settings: neoadjuvant therapy group by chemotherapy
Procedure: Immunohistochemistry. […] The assay methodology development, optimization, and validation mirrors any new clinical immunohistochemical assay development in the laboratory. […] Briefly, the assay is performed on automated Stainer's (Leica Bond or Dako) in the laboratory. Appropriate positive (e.g., normal stomach) and negative tissue (e.g. normal pancreas) controls are used to optimize and validate the assay. The best pretreatment and antibody detection systems are determined using the manufacturer's antibody datasheet, and titration of at least three antibody dilutions are performed. If there is no recommendation from the manufacturer, the antibody is tested by trying the different lab pretreatment and detection system methods in order to determine the best method. Antibody dilutions may need to be optimized, depending on the results of initial testing. A pathologist reviews the slides from the validation run to determine the optimal methodology. Assessment of MUC5AC immunohistochemical staining. The immunohistochemical-labelled whole tumor section slides is reviewed by a pathologist with expertise in pancreaticobiliary pathology. The slides are reviewed for the expression patterns (Cytoplasmic vs Membranous) and scored for the extent (% of tumor stain) and intensity of staining (Negative 0, mild 1+, moderate 2+ and strong +3). A semiquantitative approach of H-score is assigned to tumor samples for statistical analysis. […] Tumor with scores <10 are considered as negative for expression. […] One hundred resected PDA specimens and serum samples were collected. 43 patients had neoadjuvant therapy (NAT), and 57 had upfront surgery (UpS). […] The presence or absence of extracellular (EC) expression was also studied. […] NR vs. […] Five of them were heavily treated with systemic therapy. […] Serum samples for the patients were collected at different time points of the management. This allowed for studying the relationship between serum MUC5AC with the known pancreatic cancer tumor marker CA 19-9 and MUC5AC's role in predicting treatment response. […] PR vs. […] The CA 19-9 levels followed the same trend (nCR vs. PR vs. NR=129 vs. 452 vs. 958, p>0.05). […] This can explain larger tumors in these groups. […] It should be noted that CA 19-9 levels were very high but not statistically significant in lower MUC5AC groups. One key takeaway from this is that PFS is not only driven by the pathological response in NAT group. Clinically, this may translate into guiding the physicians about the timing of surgery while on systemic therapy. […] OR vs. NR, 2.64 vs. 0.9, p=0.05). • There were 17 patients within 8 weeks of surgery, 9 within 5 weeks, and 8 from 5-8 weeks. The mean MUC5AC was lower than the ones noted in the pretreatment/presurgery population (1.2 ng/mL). […] The pathological response noted on the resected sample in NAT-group reported from the scale of 1-3 based on the treatment response. For practical purposes, patients with extensive tumors with no evident tumor regression or 3 were designated as the no-response (NR) group. Patients with residual tumors with evidence of regression or 2 and near complete response or single cells or small group of cancer cells or 1 were considered as partial-response (PR) or near complete-response (nCR), respectively.

[3] = test system: MUC5AC; test: Serum MUC5AC by ELISA kit in PDA patients; assay type: in vivo, human; settings: recurrent group, adjuvant therapy
From the text: One hundred resected PDA specimens and serum samples were collected. 43 patients had neoadjuvant therapy (NAT), and 57 had upfront surgery (UpS). The cellular expression of MUC5AC was studied in the resected formalin-fixed paraffin-embedded tissue through immunohistochemistry using 45M1 and CLH2 antibodies. The expression levels in the tissue were estimated using H-score intensity (0-3)X % of tumor cells with expression with results ranging from 0-300. The presence or absence of extracellular (EC) expression was also studied. Below is a summary of some significant findings. • CLH2-MUC5AC was identified in the perinuclear region or cytoplasm, while 45M1-MUC5AC was identified in apical and EC regions. […] Human serum MUC5AC levels were analyzed using the Human MUC5AC ELISA Kit (Catalog number NBP2-76703, Novus Biologicals, Centennial, CO). 45M1 and CLH2 could not be detected in the serum samples, but the commercially available kits allowed detection and measuring of MUC5AC. […]
There was an analysis of patients with serum MUC5AC levels available post-NAT […] to understand if serum MuC5AC levels help predict treatment response. […] The correlation between tissue (45M1 and CLH2) and serum MUC5AC levels was analyzed as the former correlated with treatment response in NAT-group.

[4] = compared with MUC5AC low to moderate PCLs
[5] = compared with MUC5AC negative PCLs

| SMILES | chemosensitivity of MUC5AC high PCLs [1, 4] | chemosensitivity of MUC5AC high PCLs [1, 5] | 45M1 H-score mean [2] | 45M1 H-score median (range) [2] | 45M1 detection rate [2] | CLH2 H-score mean [2] | CLH2 H-score median (range) [2] | CLH2 detection rate [2] | EC-45M1 detection rate [2] | Serum MUC5AC ([3]; after chemotherapy) | Serum MUC5AC ([3]; before chemotherapy) |
| --- | --- | --- | --- | --- | --- | --- | --- | --- | --- | --- | --- |
| O=C1[O][Pt]2([NH][C@@H]3CCCC[C@H]3[NH]2)[O]C1=O [Oxaliplatin, oxaliplatin] | more sensitive | resistant | – | – | – | – | – | – | – | – | – |
| N.N.[Cl][Pt][Cl] [Cisplatin, cisplatin] | more sensitive | more sensitive | – | – | – | – | – | – | – | – | – |
| Nc1ccn([C@@H]2O[C@H](CO)[C@@H](O)C2(F)F)c(=O)n1 [Gem, gemcitabine] | resistant | resistant | 116 | 150 (10-210) | 100% | 150)/90 | 120 | 100% | 60% | 5.3* ng/mL | 1.1 ng/mL |
| CCc1c2c(nc3ccc(OC(=O)N4CCC(N5CCCCC5)CC4)cc13)-c1cc3c(c(=O)n1C2)COC(=O)[C@]3(O)CC [Irinotecan, irinotecan] | – | more sensitive | – | – | – | – | – | – | – | – | – |
| O=c1[nH]cc(F)c(=O)[nH]1 [5FU, fluorouracil] | more sensitive | more sensitive | 130 | 105 (0-270) | 89% | 126 | 95 (0-270) | 89% | 58% | – | – |
